Values of other authors as cited in US9901098B2, “Methods for plant protection” (TDA Research, Inc, priority 2015, dated 2018).

How the values were obtained:
[1] = system: human workers
[2] = system: microbes

[O][Cl+][O-] [ClO2, chlorine dioxide]
permissible exposure level (PEL) in air [1]: 0.1 ppm | concentration that effectively kills microbes ([2]; aqueous solutions): ≤ 1 ppm | time required to kill microbes ([2]; solutions containing 1 ppm ClO2 or less): as short as one minute
